# Source: BindingDB's records for doi:10.1016/s0960-894x(00)00601-6 (National Cancer Istitute-Frederick Cancer Research and …, 2001)
# Columns and labels:
# [1] = Inhibition of RANTES-induced migration of human embryonic kidney (CCR1/HEK) cell transfectants
# [2] = biological target: T1, C-C chemokine receptor type 1 (Homo sapiens, UniProt P32246); assay: ChEBML_40342
# T1 sequence (P32246 whole entry): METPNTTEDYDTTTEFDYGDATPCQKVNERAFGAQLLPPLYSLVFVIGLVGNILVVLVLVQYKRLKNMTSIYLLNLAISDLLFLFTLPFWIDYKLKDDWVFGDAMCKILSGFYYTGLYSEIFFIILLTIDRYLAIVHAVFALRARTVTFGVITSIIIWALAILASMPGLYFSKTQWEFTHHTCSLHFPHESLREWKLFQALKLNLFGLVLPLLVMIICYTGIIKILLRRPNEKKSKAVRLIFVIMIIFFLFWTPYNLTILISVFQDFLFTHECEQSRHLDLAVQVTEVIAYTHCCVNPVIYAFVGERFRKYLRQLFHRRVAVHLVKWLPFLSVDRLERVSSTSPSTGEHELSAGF
# Description: Inhibition of RANTES-induced migration of human embryonic kidney (CCR1/HEK) cell transfectants
SMILES,IC50 [1] [µM],IC50 [2] [µM]
CC(C)CCCC(C)[C@H]1CC[C@H]2[C@@H]3CCC4C[C@@H](CCC=C(c5cc(Cl)c(O)c(C(=O)O)c5)c5cc(Cl)c(O)c(C(=O)O)c5)CC[C@]4(C)[C@H]3CC[C@]12C (some centres undefined),0.26,–
CC(C)CCCC(C)[C@H]1CC[C@H]2[C@@H]3CCC4C[C@@H](CCC=C(c5cc(Cl)c(O)c(C(=O)NCC(=O)O)c5)c5cc(Cl)c(O)c(C(=O)NCC(=O)O)c5)CC[C@]4(C)[C@H]3CC[C@]12C (some centres undefined),10,–
[C][C]([C])[C][C][C][C]([C])[C@H]1[C][C][C@H]2[C@@H]3[C][C][C]4[C][C@@H]([C][C][C]=C(c5cc(Cl)c(O[C]c6cccc(B([O])O)c6)c(C(=O)O)c5)c5cc(Cl)c(O[C]c6cccc(B([O])O)c6)c(C(=O)O)c5)[C][C][C@]4([C])[C@H]3[C][C][C@]12[C] [Cosalane derivative],–,4
"[C][C]([C])[C][C][C][C]([C])[C@H]1[C][C][C@H]2[C@@H]3[C][C][C]4[C][C@@H]([C][C][C]=C(c5cc(Cl)c(O[C]c6ccc(-c7cccc(C([O])=O)c7)cc6)c(C(=O)O)c5)c5cc(Cl)c(O[C]c6ccc(-c7cccc(C([O])=O)c7)cc6)c(C(=O)O)c5)[C][C][C@]4([C])[C@H]3[C][C][C@]12[C] [5-{1-{3-carboxylato-4-[4-(3-carboxyphenyl)benzyloxy]-5-chlorophenyl}-4-[1-(1,5-dimethylhexyl)-9a,11a-dimethylperhydrocyclopenta[a]phenanthren-7-yl]-1-butenyl}-2-[4-(3-carboxyphenyl)benzyloxy]-3-chlorobenzoate]",–,9.1
